This experiment has as its system SK-N-SH human neuroblastoma cells. The experiment is described as follows: Serum Deprivation/JC-1 Mitochondrial Membrane Potential (MMP) Assay. It counts as cell-based. Conditions: Homo sapiens; for EC50 / Emax: SK-N-SH; for EC50: 18 h, serum deprivation ~18 hours, JC-1 ratio normalized to peak value for 10 μM dimebolin, single curve fit to mean data of n=2-3; for Emax: percent maximal intensity in JC-1 ratio normalized to peak value for 10 μM dimebolin, read-out: JC-1 max %; for Emax / activation at 3 µM: serum deprivation; for activation at 3 µM: single dose 3 μM, JC-1 ratio normalized to peak value for 10 μM dimebolin (n=2-4), read-out: JC-1 max % (@ 3 μM). The method, boiled down: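 SK-N-SH cells serum-deprived ~18 h with compound, then stained with JC-1 for 40 min at 37 °C; red (560/595 nm) to green (485/535 nm) ratio reports membrane potential. Response normalized to peak from 10 μM dimebolin; EC50 from fit to mean of n=2–3, or single-dose 3 μM; DMSO ≤1%.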

Consider `O=C1NCc2ccccc2N2CCN(Cc3ccc(F)cc3)CC12` (stereo not shown) [Example 38, 3-(4-fluorobenzyl)-2,3,4,4a,6,7-hexahydropyrazino[1,2-a][1,4]benzodiazepin-5(1H)-one], for which the EC50 was over 30 µM and the Emax worked out at 27%.

In the case of `Fc1cc(F)cc(CN2Cc3ccccc3N3CCN(Cc4ccccc4)CC3C2)c1` (stereo not shown) [Example 24, 3-benzyl-6-(3,5-difluorobenzyl)-1,2,3,4,4a,5,6,7-octahydropyrazino[1,2-a][1,4]benzodiazepine], the EC50 is 4.77 µM and the Emax came to 166%.

As for `c1ccc(CN2CCN3c4ccccc4CN(Cc4cccc5ccccc45)CC3C2)cc1` (stereo not shown) [Example 138, 3-benzyl-6-(1-naphthylmethyl)-1,2,3,4,4a,5,6,7-octahydropyrazino[1,2-a][1,4]benzodiazepine], the EC50 is 1.83 µM and the Emax turned out to be 203%.

`O=C(c1cn[nH]c1)N1Cc2ccccc2N2CCN(Cc3ccccc3)CC2C1` (stereo not shown) [Example 85, (3-benzyl-1,2,3,4,4a,5-hexahydropyrazino[1,2-a][1,4]benzodiazepin-6(7H)-yl)(1H-pyrazol-4-yl)methanone]: the activation at 3 µM is 80%.

As for `O=C(Cc1ccc(Cl)cc1)N1CCC2CN(Cc3ccccc3)CCN2c2ccccc21` (stereo not shown) [Example 27, 1-(3-benzyl-2,3,4,4a,5,6-hexahydropyrazino[1,2-a][1,5]benzodiazepin-7(1H)-yl)-2-(4-chlorophenyl)ethanone], the EC50 was 4.44 µM and the Emax worked out at 149%.

With `CC(C)(C)OC(=O)N1CCN2c3ccccc3CN(Cc3ccc(Br)cc3)C(=O)C2C1` (stereo not shown) [Example 67, tert-butyl 6-(4-bromobenzyl)-5-oxo-1,2,4a,5,6,7-hexahydropyrazino[1,2-a][1,4]benzodiazepine-3(4H)-carboxylate], the EC50 came to 5.06 µM and the Emax amounted to 215%.

On to `c1ccc(CN2CCN3c4ccccc4CN(Cc4cccs4)CC3C2)cc1` (stereo not shown) [Example 147, 3-benzyl-6-(2-thienylmethyl)-1,2,3,4,4a,5,6,7-octahydropyrazino[1,2-a][1,4]benzodiazepine], for which the activation at 3 µM turned out to be 1.7%.

With `O=C(N1Cc2ccccc2N2CCN(Cc3ccccc3)CC2C1)C1(c2ccccc2)CC1` (stereo not shown) [Example 13, (3-benzyl-1,2,3,4,4a,5-hexahydropyrazino[1,2-a][1,4]benzodiazepin-6(7H)-yl)(1-phenylcyclopropyl)methanone], the EC50 came out at 4.18 µM and the Emax was found to be 175%.

Turning to `O=C(CC(F)(F)F)N1Cc2ccccc2N2CCN(Cc3ccccc3)CC2C1` (stereo not shown) [Example 117, 1-(3-benzyl-1,2,3,4,4a,5-hexahydropyrazino[1,2-a][1,4]benzodiazepin-6(7H)-yl)-3,3,3-trifluoropropan-1-one], the activation at 3 µM turned out to be 70%.

For the compound `c1ccc(CN2CCN3c4ccccc4CN(Cc4cncc5ccccc45)CC3C2)cc1` (stereo not shown) [Example 37, 3-benzyl-6-(isoquinolin-4-ylmethyl)-1,2,3,4,4a,5,6,7-octahydropyrazino[1,2-a][1,4]benzodiazepine], the EC50 came out at 1.21 µM and the Emax is 172%.

Consider `CCC(=O)N1Cc2ccccc2N2CCN(Cc3ccccc3)CC2C1` (stereo not shown) [Example 106, 1-(3-benzyl-1,2,3,4,4a,5-hexahydropyrazino[1,2-a][1,4]benzodiazepin-6(7H)-yl)propan-1-one], for which the activation at 3 µM was determined as 81%.

For `Cc1ccccc1CN1Cc2ccccc2N2CCN(Cc3ccccc3)CC2C1` (stereo not shown) [Example 131, 3-benzyl-6-(2-methylbenzyl)-1,2,3,4,4a,5,6,7-octahydropyrazino[1,2-a][1,4]benzodiazepine], the EC50 is 3.22 µM and the Emax is 144%.

For the compound `Fc1ccc(CN2CCN3c4ncccc4N(CC4CNC4)CCC3C2)cc1` (stereo not shown) [Example 69, 5-(azetidin-3-ylmethyl)-9-(4-fluorobenzyl)-5,6,7,7a,8,9,10,11-octahydropyrazino[1,2-d]pyrido[3,2-b][1,4]diazepine], the EC50 was 10.3 µM and the Emax is 154%.

For `O=C(c1cccnc1)N1Cc2ccccc2N2CCN(Cc3ccccc3)CC2C1` (stereo not shown) [Example 110, (3-benzyl-1,2,3,4,4a,5-hexahydropyrazino[1,2-a][1,4]benzodiazepin-6(7H)-yl)(pyridin-3-yl)methanone], the activation at 3 µM was 97%.

For `O=C(NCCc1ccccn1)N1Cc2ccccc2N2CCN(Cc3ccccc3)CC2C1` (stereo not shown) [Example 151, 3-benzyl-N-[2-(pyridin-2-yl)ethyl]-1,2,3,4,4a,5-hexahydropyrazino[1,2-a][1,4]benzodiazepine-6(7H)-carboxamide], the EC50 worked out at 1.8 µM and the Emax stood at 163%.

On to `O=C(C1CC1)N1CCC2CNCCN2c2ncccc21` (stereo not shown) [Example 72, cyclopropyl(7,7a,8,9,10,11-hexahydropyrazino[1,2-d]pyrido[3,2-b][1,4]diazepin-5(6H)-yl)methanone], for which the EC50 stood at 13.3 µM and the Emax amounted to 98%.

For the compound `O=C(c1ccncc1)N1CCC2CN(Cc3ccccc3)CCN2c2ccccc21` (stereo not shown) [Example 43, (3-benzyl-2,3,4,4a,5,6-hexahydropyrazino[1,2-a][1,5]benzodiazepin-7(1H)-yl)(pyridin-4-yl)methanone], the EC50 is 6.76 µM and the Emax turned out to be 115%.

On to `Clc1ccccc1CN1Cc2ccccc2N2CCN(Cc3ccccc3)CC2C1` (stereo not shown) [Example 139, 3-benzyl-6-(2-chlorobenzyl)-1,2,3,4,4a,5,6,7-octahydropyrazino[1,2-a][1,4]benzodiazepine], for which the EC50 was 3.18 µM and the Emax came out at 145%.

In the case of `O=C(c1ccccc1)N1Cc2ccccc2N2CCN(Cc3ccccc3)CC2C1` (stereo not shown) [Example 5, (3-benzyl-1,2,3,4,4a,5-hexahydropyrazino[1,2-a][1,4]benzodiazepin-6(7H)-yl)(phenyl)methanone], the EC50 came to 6.7 µM and the Emax worked out at 57%.

With `O=C(c1ccncc1)N1Cc2ccccc2N2CCN(Cc3ccccc3)CC2C1` (stereo not shown) [Example 107, (3-benzyl-1,2,3,4,4a,5-hexahydropyrazino[1,2-a][1,4]benzodiazepin-6(7H)-yl)(pyridin-4-yl)methanone], the EC50 was 5.66 µM and the Emax turned out to be 192%.

Regarding `O=C(NCc1cccnc1)N1Cc2ccccc2N2CCN(Cc3ccccc3)CC2C1` (stereo not shown) [Example 163, 3-benzyl-N-(pyridin-3-ylmethyl)-1,2,3,4,4a,5-hexahydropyrazino[1,2-a][1,4]benzodiazepine-6(7H)-carboxamide], the activation at 3 µM turned out to be 183%.

As for `Cc1noc(C)c1C(=O)N1Cc2ccccc2N2CCN(Cc3ccccc3)CC2C1` (stereo not shown) [Example 101, (3-benzyl-1,2,3,4,4a,5-hexahydropyrazino[1,2-a][1,4]benzodiazepin-6(7H)-yl)(3,5-dimethyl-1,2-oxazol-4-yl)methanone], the activation at 3 µM is 149%.

Take `Fc1cc(CN2Cc3ccccc3N3CCN(Cc4ccccc4)CC3C2)ccc1Br` (stereo not shown) [Example 23, 3-benzyl-6-(4-bromo-3-fluorobenzyl)-1,2,3,4,4a,5,6,7-octahydropyrazino[1,2-a][1,4]benzodiazepine]: the EC50 was determined as 5.72 µM and the Emax was determined as 238%.

As for `O=C(c1ccc(Br)cc1)N1CCC2CN(Cc3ccccc3)CCN2c2ccccc21` (stereo not shown) [Example 41, (3-benzyl-2,3,4,4a,5,6-hexahydropyrazino[1,2-a][1,5]benzodiazepin-7(1H)-yl)(4-bromophenyl)methanone], the EC50 was 4.67 µM and the Emax was 186%.

Turning to `CN1CCN2c3ccccc3CN(C(=O)c3cccc(Cl)c3)CC2C1` (stereo not shown) [Example 175, (3-chlorophenyl)(3-methyl-1,2,3,4,4a,5-hexahydropyrazino[1,2-a][1,4]benzodiazepin-6(7H)-yl)methanone], the activation at 3 µM was 40%.

Turning to `c1ccc(CN2CCN3c4ccccc4N(Cc4ccccc4)CCC3C2)cc1` (stereo not shown) [Example 45, 3,7-dibenzyl-1,2,3,4,4a,5,6,7-octahydropyrazino[1,2-a][1,5]benzodiazepine], the EC50 was found to be 5.93 µM and the Emax was determined as 238%.

Turning to `O=C(N1CCOCC1)N1Cc2ccccc2N2CCN(S(=O)(=O)c3ccccc3)CC2C1` (stereo not shown) [Example 81, morpholin-4-yl[3-(phenylsulfonyl)-1,2,3,4,4a,5-hexahydropyrazino[1,2-a][1,4]benzodiazepin-6(7H)-yl]methanone], the EC50 came out at 9.92 µM and the Emax turned out to be 129%.

Take `O=C(N1CCOCC1)N1Cc2ccccc2N2CCNCC2C1` (stereo not shown) [Example 75, 1,2,3,4,4a,5-hexahydropyrazino[1,2-a][1,4]benzodiazepin-6(7H)-yl(morpholin-4-yl)methanone]: the EC50 is over 10 µM and the Emax came to 48%.

Consider `Fc1ccc(CN2CCN3c4ccccc4CN(Cc4ccc(Br)cc4)CC3C2)cc1` (stereo not shown) [Example 56, 6-(4-bromobenzyl)-3-(4-fluorobenzyl)-1,2,3,4,4a,5,6,7-octahydropyrazino[1,2-a][1,4]benzodiazepine], for which the EC50 amounted to 5.17 µM and the Emax is 161%.

Take `O=C(CCN1CCCC1)N1Cc2ccccc2N2CCN(Cc3ccccc3)CC2C1` (stereo not shown) [Example 91, 1-(3-benzyl-1,2,3,4,4a,5-hexahydropyrazino[1,2-a][1,4]benzodiazepin-6(7H)-yl)-3-(pyrrolidin-1-yl)propan-1-one]: the activation at 3 µM was 78%.

`Fc1ccc(CN2CCN3c4ncccc4N(CC4CC4)CCC3C2)cc1` (stereo not shown) [Example 64, 5-(cyclopropylmethyl)-9-(4-fluorobenzyl)-5,6,7,7a,8,9,10,11-octahydropyrazino[1,2-d]pyrido[3,2-b][1,4]diazepine]: the EC50 stood at 5.66 µM and the Emax amounted to 139%.

Take `CC(C)(C)OC(=O)N1CCN2c3ccccc3CN(Cc3ccc(Br)cc3)CC2C1` (stereo not shown) [Example 66, tert-butyl 6-(4-bromobenzyl)-1,2,4a,5,6,7-hexahydropyrazino[1,2-a][1,4]benzodiazepine-3(4H)-carboxylate]: the EC50 was found to be 4.84 µM and the Emax came to 192%.

Usually EC50 stands for the midpoint of the concentration-response curve.

For the origin of these results see patent US9133206B2, “Benzodiazepine and pyridodiazepine derivatives” (AbbVie Inc., priority 2010, dated 2015).
